We go through three molecules from ChEMBL document CHEMBL4831514, “Novel betulin dicarboxylic acid ester derivatives as potent antiviral agents: Design, synthesis, biological evaluation, structure-activity relationship and in-silico study” (Eur J Med Chem, 2021).

One may read the EC50 as the midpoint of the concentration-response curve.

Data set [1] concerns Influenza A virus. Put plainly: Antiviral activity against Influenza A virus H1N1 (A/PR/8/34) infected in MDCK cells assessed as reduction in virus titer treated 1 hr post viral infection followed by replacement with fresh medium with compounds and measured after 72 hrs by MTT assay. It is filed as functional, organism-based. As to conditions: H1N1 A/PR/8/34, MDCK.
Data set [2] in a line: Selectivity index, ratio of CC50 for cytotoxicity against dog MDCK cells to EC50 for antiviral activity against Influenza A virus H1N1 (A/PR/8/34) infected in MDCK cells assessed as reduction in virus titer treated 1 hr post viral infection followed by replacement with fresh medium with compounds and measured after 72 hrs by MTT assay. It is filed as toxicity, cell-based. The settings on record: read-out: Selectivity Index. For orientation: Tetrazolium dyes change colour on reduction, which living cells bring about.

Data set [3] has as its system Influenza A virus. Put plainly: Potency index, ratio of oseltamivir EC50 to test compound EC50 for antiviral activity against Influenza A virus H1N1 (A/PR/8/34) infected in MDCK cells assessed as reduction in virus titer treated 1 hr post viral infection followed by replacement with fresh medium with compounds and measured after 72 hrs by MTT assay. It is filed as functional.

With `C=C(C)[C@@H]1CC[C@]2(COC(=O)CSCC(=O)O)CC[C@]3(C)[C@H](CC[C@@H]4[C@@]5(C)CC[C@H](O)C(C)(C)[C@@H]5CC[C@]43C)[C@@H]12`, the EC50 with Influenza A virus [1] is 21.1 µM. Moreover, in data set [2], the selectivity ratio at 72 h was 2. Further, the “Ratio EC50” value with Influenza A virus [3] was 3.

As for `CCOC(=O)C1=C[C@@H](OC(CC)CC)[C@H](NC(C)=O)[C@@H](N)C1` [OSELTAMIVIR], the EC50 in the data set with Influenza A virus [1] came to 80.1 µM. For the same molecule, in data set [2], the selectivity ratio at 72 h stood at 98.2.

Take `C#CC1(NC(=O)/C(C)=C/C(=O)OC[C@]23CC[C@@H](C(=C)C)[C@@H]2[C@H]2CC[C@@H]4[C@@]5(C)CC[C@H](O)C(C)(C)[C@@H]5CC[C@@]4(C)[C@]2(C)CC3)CCCCC1`: in the data set on Influenza A virus [1], the EC50 was determined as 27.2 µM. Also, the selectivity ratio at 72 h in data set [2] is 2. Also, in the data set on Influenza A virus [3], the “Ratio EC50” value is 3.
